{
  "source": "patent US8889887B2",
  "about": "“Pentamethine cyanine fluorescent dyes, preparation methods and uses thereof” (Dalian University of Technology, priority 2011, dated 2014)",
  "key": {"[1]": {"test": "Viscosity experiments: absorption and emission spectra in glycerol-ethanol mixtures", "format": "physicochemical", "experimental": "(§1) Firstly, DMSO solutions of 4 and 7 having a concentration of 1.0×10^−3 M were prepared, respectively. The stock solution of […] was added into 10 mL glycerol-ethanol mixture, and ultrasonicated to remove bubbles. The solution stayed for 1 hour, and then absorption and emission spectra therefore were measured by using UV-visible spectrophotometer and fluorescence spectrophotometer, and fluorescence lifetime of solution with different viscosity was detected as well. UV-visible spectrophotometer, model: Hp8453; fluorescence spectrophotometer model: FP-6500; Fluorescence lifetime equipment: Horiba Jobin Yvon Fluoromax-4-p.\n(§2) Glycerol-ethanol mixture was a mixture of glycerol and ethanol, Vglycerol: Vethanol were 1:9, 2:8, 3:7, 4:6, 5:5, 6:4, 7:3, 8:2 and 9:1."}, "[2]": {"test": "Fluorescence lifetime in solutions with different viscosity", "format": "physicochemical", "conditions": "FIG. 5A, 1 μM", "experimental": "as §1, §2"}, "[3]": {"system": "MCF-7 cells", "test": "Fluorescence imaging of stained cells under laser confocal scanning microscopy", "format": "cell-based", "experimental": "The compounds 4 and 7 (12 μL, 5 μM) in PBS buffer were added into a 6-well plate with incubated MCF-7 cells, and then the plate was incubated for 30 minutes in a cell incubator of 37° C. and 5% CO2. The plate was rinsed with PBS for 5 min×3 times, fresh culture medium was added thereto, and the cells were observed under laser confocal scanning microscopy (Leica, TCS-SP2, Germany). Typical region was selected, the traditional Cy5 was excited at 633 nm and 7 was excited at 514 nm, the cells were observed under oil immersion lens (1000×) for three times.\n(§3) MCF-7 cells and Hela cells were inoculated on a 6-well plate and cultured for 24 hours at 37° C. and 5% CO2. Then, the dye was added in a final concentration of 5 μM, and the plate was incubated at 37° C. for 30 min. The culture medium was moved off, and the plate was rinsed with PBS for two times. Fresh culture medium 1200 μL was added and the fluorescence was excited.\nas §3, with “Then, H2O2 133.3 µL was added in a final concentration of 1 mM/L, and the plate was incubated at 37° C. for 2 hours. The culture medium was moved off, and the plate was rinsed with PBS for two times. Fresh culture medium 1200 μL was added and then” for “Then,”, “μM,” for “μM, and”\nMCF-7 cells and Hela cells were inoculated on a 6-well plate and cultured for 24 hours at 37° C. and 5% CO2. The culture medium was moved off, and the plate was rinsed with PBS for two times. Appropriate amount of 70% ethanol was added and then the plate was incubated at 37° C. for 30 min. Ethanol for fixing was moved off, and the plate was rinsed with PBS for two times. PBS 1200 μL was added and then the dye was added in a final concentration of 5 μM, the plate was incubated at 37° C. for 30 min and the fluorescence was excited."}, "[4]": {"test": "UV absorption and fluorescence emission spectra in different solvents", "format": "physicochemical", "conditions": "for λabs1 maximum absorption wavelength / λabs2 maximum absorption wavelength / λem1 maximum emission wavelength / λem2 maximum emission wavelength: 1 μM; for Φ1 fluorescence quantum yield / Φ2 fluorescence quantum yield: reference Rhodamine B in ethanol", "experimental": "Firstly, stock solutions of 4 and 7 in DMSO were prepared respectively. Then sample solutions of 1 μM were prepared by diluting the mother liquors with corresponding chromatography grade solvent. UV absorption and fluorescence emission spectra of the sample solutions in different solvents were measured at room temperature, the results were shown in FIGS. 1A and 1B, respectively."}},
  "note": "Several values for one entry are separate records, joined by “and”; a condition that tells them apart may be missing. Equal entries are not always repeated. Structures can show the parent of a compound that is named as a salt.",
  "data": [
    {"compound": "CCN1/C(=C/C=C(C=C(C#N)C#N)/C=C/C2=[N+](CC)c3ccccc3C2(C)C)C(C)(C)c2ccccc21", "note": "[compound 7, 1,5-di(1-N-ethyl-3,3-dimethyl-2,3-H— lindoline)-3-(2,2-dicyanovinyl)-1,3,5-pentatriene chloride quaternary ammonium salt cyanine dye]", "values": [
      {"measurement": "UV absorption with variation of solution viscosity", "setting": "[1]; FIG. 4A, 1 μM", "value": "kept constant"},
      {"measurement": "sensitivity of fluorescence intensity to solvent viscosity", "setting": "[1]; glycerol-ethanol mixtures", "value": "quite sensitive to solvent viscosity"},
      {"measurement": "fluorescence lifetime at 665 nm with increase of solution viscosity", "setting": "[2]", "value": "obviously elongated"},
      {"measurement": "ratio value of fluorescence (red 665 / green 565 nm channel)", "setting": "[3]; MCF-7 cells stood 4 hours at room temperature after incubation (dying)", "value": "ratio value of the probe was between (1) and (2)"},
      {"measurement": "ratio value of fluorescence (red 665 / green 565 nm channel)", "setting": "[3]; MCF-7 cells treated with hydrogen peroxide (1 mM), apoptosis induced", "value": "ratio value was increased"},
      {"measurement": "ratio value of fluorescence (red 665 / green 565 nm channel)", "setting": "[3]; normal live MCF-7 cells, 5 μM, 30 minutes", "value": "ratio value was small"},
      {"measurement": "Δλ1 Stokes Shift (λem1 − λabs1)", "setting": "[4]; DMSO", "value": 47, "unit": "nm"},
      {"measurement": "Δλ2 Stokes Shift (λem2 − λabs2)", "setting": "[4]; DMSO", "value": 31, "unit": "nm"},
      {"measurement": "Δλ3 Stokes Shift (λem2 − λabs1)", "setting": "[4]; DMSO", "value": 148, "unit": "nm"},
      {"measurement": "ε1 molar extinction coefficient", "setting": "[4]; DMSO", "value": 45000, "unit": "L/cm/mol"},
      {"measurement": "ε2 molar extinction coefficient", "setting": "[4]; DMSO", "value": 118200, "unit": "L/cm/mol"},
      {"measurement": "λabs1 maximum absorption wavelength", "setting": "[4]; DMSO", "value": 522, "unit": "nm"},
      {"measurement": "λabs2 maximum absorption wavelength", "setting": "[4]; DMSO", "value": 639, "unit": "nm"},
      {"measurement": "λem1 maximum emission wavelength", "setting": "[4]; DMSO", "value": 569, "unit": "nm"},
      {"measurement": "λem2 maximum emission wavelength", "setting": "[4]; DMSO", "value": 670, "unit": "nm"},
      {"measurement": "Φ1 fluorescence quantum yield", "setting": "[4]; DMSO", "value": 0.0057},
      {"measurement": "Φ2 fluorescence quantum yield", "setting": "[4]; DMSO", "value": 0.0113},
      {"measurement": "Δλ1 Stokes Shift (λem1 − λabs1)", "setting": "[4]; acetonitrile", "value": 48, "unit": "nm"},
      {"measurement": "Δλ2 Stokes Shift (λem2 − λabs2)", "setting": "[4]; acetonitrile", "value": 25, "unit": "nm"},
      {"measurement": "Δλ3 Stokes Shift (λem2 − λabs1)", "setting": "[4]; acetonitrile", "value": 148, "unit": "nm"},
      {"measurement": "ε1 molar extinction coefficient", "setting": "[4]; acetonitrile", "value": 59400, "unit": "L/cm/mol"},
      {"measurement": "ε2 molar extinction coefficient", "setting": "[4]; acetonitrile", "value": 112000, "unit": "L/cm/mol"},
      {"measurement": "λabs1 maximum absorption wavelength", "setting": "[4]; acetonitrile", "value": 513, "unit": "nm"},
      {"measurement": "λabs2 maximum absorption wavelength", "setting": "[4]; acetonitrile", "value": 635, "unit": "nm"},
      {"measurement": "λem1 maximum emission wavelength", "setting": "[4]; acetonitrile", "value": 561, "unit": "nm"},
      {"measurement": "λem2 maximum emission wavelength", "setting": "[4]; acetonitrile", "value": 661, "unit": "nm"},
      {"measurement": "Φ1 fluorescence quantum yield", "setting": "[4]; acetonitrile", "value": 0.0017},
      {"measurement": "Φ2 fluorescence quantum yield", "setting": "[4]; acetonitrile", "value": 0.0019},
      {"measurement": "Δλ1 Stokes Shift (λem1 − λabs1)", "setting": "[4]; dichloromethane", "value": 56, "unit": "nm"},
      {"measurement": "Δλ2 Stokes Shift (λem2 − λabs2)", "setting": "[4]; dichloromethane", "value": 16, "unit": "nm"},
      {"measurement": "Δλ3 Stokes Shift (λem2 − λabs1)", "setting": "[4]; dichloromethane", "value": 160, "unit": "nm"},
      {"measurement": "ε1 molar extinction coefficient", "setting": "[4]; dichloromethane", "value": 49700, "unit": "L/cm/mol"},
      {"measurement": "ε2 molar extinction coefficient", "setting": "[4]; dichloromethane", "value": 113500, "unit": "L/cm/mol"},
      {"measurement": "λabs1 maximum absorption wavelength", "setting": "[4]; dichloromethane", "value": 512, "unit": "nm"},
      {"measurement": "λabs2 maximum absorption wavelength", "setting": "[4]; dichloromethane", "value": 656, "unit": "nm"},
      {"measurement": "λem1 maximum emission wavelength", "setting": "[4]; dichloromethane", "value": 568, "unit": "nm"},
      {"measurement": "λem2 maximum emission wavelength", "setting": "[4]; dichloromethane", "value": 672, "unit": "nm"},
      {"measurement": "Φ1 fluorescence quantum yield", "setting": "[4]; dichloromethane", "value": 0.0016},
      {"measurement": "Φ2 fluorescence quantum yield", "setting": "[4]; dichloromethane", "value": 0.006},
      {"measurement": "Δλ1 Stokes Shift (λem1 − λabs1)", "setting": "[4]; ethanol", "value": 56, "unit": "nm"},
      {"measurement": "Δλ2 Stokes Shift (λem2 − λabs2)", "setting": "[4]; ethanol", "value": 27, "unit": "nm"},
      {"measurement": "Δλ3 Stokes Shift (λem2 − λabs1), pseudo-Stokes Shift", "setting": "[4]; ethanol", "value": 158, "unit": "nm"},
      {"measurement": "ε1 molar extinction coefficient", "setting": "[4]; ethanol", "value": 53100, "unit": "L/cm/mol"},
      {"measurement": "ε2 molar extinction coefficient", "setting": "[4]; ethanol", "value": 125600, "unit": "L/cm/mol"},
      {"measurement": "λabs1 maximum absorption wavelength", "setting": "[4]; ethanol", "value": 510, "unit": "nm"},
      {"measurement": "λabs2 maximum absorption wavelength", "setting": "[4]; ethanol", "value": 641, "unit": "nm"},
      {"measurement": "λem1 maximum emission wavelength", "setting": "[4]; ethanol", "value": 566, "unit": "nm"},
      {"measurement": "λem2 maximum emission wavelength", "setting": "[4]; ethanol", "value": 668, "unit": "nm"},
      {"measurement": "Φ1 fluorescence quantum yield", "setting": "[4]; ethanol", "value": 0.0022},
      {"measurement": "Φ2 fluorescence quantum yield", "setting": "[4]; ethanol", "value": 0.0048},
      {"measurement": "sensitivity to solvent polarity", "setting": "[4]; low-viscosity solvents of different polarity", "value": "insensitive to solvent polarity"},
      {"measurement": "Δλ1 Stokes Shift (λem1 − λabs1)", "setting": "[4]; methanol", "value": 59, "unit": "nm"},
      {"measurement": "Δλ2 Stokes Shift (λem2 − λabs2)", "setting": "[4]; methanol", "value": 25, "unit": "nm"},
      {"measurement": "Δλ3 Stokes Shift (λem2 − λabs1)", "setting": "[4]; methanol", "value": 156, "unit": "nm"},
      {"measurement": "ε1 molar extinction coefficient", "setting": "[4]; methanol", "value": 49000, "unit": "L/cm/mol"},
      {"measurement": "ε2 molar extinction coefficient", "setting": "[4]; methanol", "value": 122000, "unit": "L/cm/mol"},
      {"measurement": "λabs1 maximum absorption wavelength", "setting": "[4]; methanol", "value": 509, "unit": "nm"},
      {"measurement": "λabs2 maximum absorption wavelength", "setting": "[4]; methanol", "value": 636, "unit": "nm"},
      {"measurement": "λem1 maximum emission wavelength", "setting": "[4]; methanol", "value": 568, "unit": "nm"},
      {"measurement": "λem2 maximum emission wavelength", "setting": "[4]; methanol", "value": 665, "unit": "nm"},
      {"measurement": "Φ1 fluorescence quantum yield", "setting": "[4]; methanol", "value": 0.0022},
      {"measurement": "Φ2 fluorescence quantum yield", "setting": "[4]; methanol", "value": 0.0031},
      {"measurement": "absorption peak, longer wavelength", "setting": "[4]; solvent not stated", "value": 655, "unit": "nm"},
      {"measurement": "absorption peak, shorter wavelength", "setting": "[4]; solvent not stated", "value": 510, "unit": "nm"},
      {"measurement": "emission peak, longer wavelength", "setting": "[4]; solvent not stated", "value": "668 nm and 665 nm"},
      {"measurement": "emission peak, shorter wavelength", "setting": "[4]; solvent not stated", "value": 565, "unit": "nm"},
      {"measurement": "Δλ1 Stokes Shift (λem1 − λabs1)", "setting": "[4]; water", "value": 50, "unit": "nm"},
      {"measurement": "Δλ2 Stokes Shift (λem2 − λabs2)", "setting": "[4]; water", "value": 28, "unit": "nm"},
      {"measurement": "Δλ3 Stokes Shift (λem2 − λabs1)", "setting": "[4]; water", "value": 135, "unit": "nm"},
      {"measurement": "ε1 molar extinction coefficient", "setting": "[4]; water", "value": 31000, "unit": "L/cm/mol"},
      {"measurement": "ε2 molar extinction coefficient", "setting": "[4]; water", "value": 52400, "unit": "L/cm/mol"},
      {"measurement": "λabs1 maximum absorption wavelength", "setting": "[4]; water", "value": 520, "unit": "nm"},
      {"measurement": "λabs2 maximum absorption wavelength", "setting": "[4]; water", "value": 627, "unit": "nm"},
      {"measurement": "λem1 maximum emission wavelength", "setting": "[4]; water", "value": 570, "unit": "nm"},
      {"measurement": "λem2 maximum emission wavelength", "setting": "[4]; water", "value": 655, "unit": "nm"},
      {"measurement": "Φ1 fluorescence quantum yield", "setting": "[4]; water", "value": 0.0006},
      {"measurement": "Φ2 fluorescence quantum yield", "setting": "[4]; water", "value": 0.0028}
    ]}
  ]
}
